pEC50, pIC50: −log10 of the molar value. Entries after “also recorded” stand apart in the source; their conditions may differ. Like-named read-outs stand apart in the source and are kept apart here.
How the values were obtained:
[1] = test system: mRNA encoding TNF-α in LPS-activated RAW264.7 cells; assay type: cell-based
[2] = test system: mRNA encoding IL-6 in LPS-activated RAW264.7 cells; assay type: cell-based
A/WSN/1933 (H1N1) virus = assay: Cytopathic prevention assay in MDCK cells, H1N1; assay type: cell-based, influenza A/WSN/1933 (H1N1); settings: for anti-influenza activity (in words): H1N1 virus
Method: The cytopathic prevention assays in Madin-Darby canine kidney (MDCK) cells were conducted to evaluate the anti-influenza activity. To our anticipation, the ZA-7-conjugates were potent inhibitors against human H1N1 virus (Table 2). The ZA-1-conjugates 9-12 also resumed anti-influenza activity in the cell-based assays. […] The anti-influenza activity could not be caused by caffeic esters alone. (Salomon, R. et al. Proc. Natl. Acad. Sci. U.S.A. 2007, 104, 12479)
The anti-flu activities of neuraminidase inhibitors were measured by the EC50 values that were the concentrations of NA inhibitor for 50% protection of the H1N1 CPE activities. Fifty μL diluted H1N1 at 100 TCID50 were mixed with equal volumes of NA inhibitors at varied concentrations. The mixtures were used to infect 100 μL of MDCK cells at 1×10^5 cells/mL in 96-wells. After 48 h incubation at 37° C. under 5.0% CO2, the cytopathic effects (CPE) were determined with CellTiter 96® AQueous Non-Radioactive Cell Proliferation Assay reagent as described above. Inhibitor EC50 value were determined by fitting the curve of percent CPE versus the concentrations of NA inhibitor using Graph Pad Prism 4.

[3] = target: neuraminidase of influenza A/WSN/1933 (H1N1) virus (Influenza A virus, UniProt P03470); assay: biochemical; assay type: biochemical
[4] = test system: influenza A/Cal/07/2009 H1N1; design: species or system BALB/c mice; settings: mouse, in vivo
[5] = humans; cited from earlier work
[6] = test system: NIBRG-14 (A/VietNam/1194/2004) H5N1; assay type: in vivo, BALB/c mice; settings: for survival of H5N1 infected mice (in words): 12 μmol/kg/day intranasal, 10 LD50 NIBRG-14, FIG. 17A/17B
[7] = test system: recombinant NIBRG-14 (A/Viet Nam/1194/2004) H5N1 virus; assay: microbe, parasite or virus in culture; assay type: cell-based, avian H5N1 influenza virus; settings: for pEC50: Influenza A virus, H5N1, read-out: EC50 against avian H5N1 virus
IFN-γ = test system: IFN-γ; design: species or system mice; settings: mouse, in vivo
IL-6 = test system: IL-6; design: species or system mice; settings: mouse, in vivo
[8] = Sprague Dawley, rat
[9] = A/WSN/1933 (H1N1) virus, table data are ranges or single assay results, read-out: EC50 (nM), anti-influenza activity
[10] = Influenza A virus, MDCK, A/WSN/1933 (H1N1) virus, table data are ranges or single assay results, read-out: EC50 (nM), anti-influenza activity

Sequence of neuraminidase of influenza A/WSN/1933 (H1N1) virus (P03470 whole entry, looked up): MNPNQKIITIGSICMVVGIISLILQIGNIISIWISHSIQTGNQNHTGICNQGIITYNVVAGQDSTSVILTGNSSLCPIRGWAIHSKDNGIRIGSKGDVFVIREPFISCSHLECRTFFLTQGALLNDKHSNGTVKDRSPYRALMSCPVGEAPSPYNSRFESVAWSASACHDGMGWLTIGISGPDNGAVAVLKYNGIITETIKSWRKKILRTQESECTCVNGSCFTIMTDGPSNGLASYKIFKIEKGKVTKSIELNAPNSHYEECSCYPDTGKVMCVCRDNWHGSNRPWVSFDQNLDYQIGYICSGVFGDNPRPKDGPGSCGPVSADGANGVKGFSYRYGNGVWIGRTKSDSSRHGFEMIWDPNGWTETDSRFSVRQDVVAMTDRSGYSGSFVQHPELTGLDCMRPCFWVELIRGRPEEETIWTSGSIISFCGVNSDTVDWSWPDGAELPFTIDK

Compound: 3,4-(methylenedioxy)cinnamic acid [MCA, reference compound]
- mRNA encoding TNF-α [1]: dose-dependent decreases
- mRNA encoding IL-6 [2]: dose-dependent decreases
- EC50 (A/WSN/1933 (H1N1) virus; [9]): > 100000 nM
- NA inhibitory activity (in words) [3]: did not exhibit any NA inhibitory activity
- IC50 ([3]; read-out: IC50 (nM), influenza neuraminidase inhibition): > 100000 nM

Compound: CC(C)(C)OC(=O)NCCCOC(=O)C=Cc1ccc(O)c(O)c1 [3-(tert-butoxyamido)propyl caffeate, reference compound]
- anti-influenza activity (in words) (A/WSN/1933 (H1N1) virus): inactive

Compound: O=C(/C=C/c1ccc(O)c(O)c1)OCCCO [3-hydroxypropyl caffeate, reference compound]
- anti-influenza activity (in words) (A/WSN/1933 (H1N1) virus): inactive

Compound: O=C(O)/C=C/c1ccc(O)c(O)c1 [CA, caffeic acid, reference compound]
- mRNA encoding TNF-α [1]: dose-dependent decreases
- mRNA encoding IL-6 [2]: dose-dependent decreases
- survival of H1N1 infected mice (in words) [4]: all the mice died at day 12
- EC50 (A/WSN/1933 (H1N1) virus; [10]): > 100000 nM
- NA inhibitory activity (in words) [3]: did not exhibit any NA inhibitory activity

Compound: O=C(O)c1ccc2ccccc2c1O [HNAP, 1-hydroxy-2-naphthoic acid, reference compound]
- EC50 (A/WSN/1933 (H1N1) virus; [10]): > 100000 nM

Compound: Nc1ccc(O)c(C(=O)O)c1 [ME, mesalazine, reference compound]
- mRNA encoding TNF-α [1]: dose-dependent decreases
- mRNA encoding IL-6 [2]: dose-dependent decreases
- EC50 (A/WSN/1933 (H1N1) virus; [10]): > 100000 nM
- NA inhibitory activity (in words) [3]: did not exhibit any NA inhibitory activity

Compound: CC(=O)N[C@H]1[C@H]([C@H](O)[C@H](O)CO)OC(C(=O)O)=C[C@@H]1N=C(N)N [ZA, zanamivir, reference compound]
- bioavailability [5]: ~5%
- survival of H5N1 infected mice (in words) [6]: did not improve the survival rate
- pEC50 [7]: 6.17
- survival at day 14 / protection from virus-induced death [4]: 10%
- survival of H1N1 infected mice (in words) [4]: all the mice died at day 12
- EC50 (A/WSN/1933 (H1N1) virus; [9]): 3.5 to 20.2 nM
- EC50 (A/WSN/1933 (H1N1) virus; read-out: EC50 (nM), anti-influenza activity, A/WSN/1933 (H1N1) virus, table data are ranges or single assay results): 14 nM

Compound: CC(=O)NC1C(NC(=N)N)C=C(C(=O)OCCCOC(=O)C=Cc2ccc(O)c(O)c2)OC1C(O)C(O)CO (centres unmarked) [ZA-1-CA (9)]
- EC50 (A/WSN/1933 (H1N1) virus; [10]): 25 nM
- pIC50 [3]: 5.54

Compound: CC(=O)NC1C(N=C(N)N)C=C(C(=O)OCCCOC(=O)c2ccc3ccccc3c2O)OC1C(O)C(O)CO (centres unmarked) [ZA-1-HNAP (12)]
- EC50 (A/WSN/1933 (H1N1) virus; [10]): 48 nM
- pIC50 [3]: 6.23

Compound: CC(=O)NC1C(NC(=N)N)C=C(C(=O)OCCCOC(=O)C=Cc2ccc3c(c2)OCO3)OC1C(O)C(O)CO (centres unmarked) [ZA-1-MCA (10)]
- EC50 (A/WSN/1933 (H1N1) virus; [10]): 28 nM
- pIC50 [3]: 5.40

Compound: CC(=O)NC1C(NC(=N)N)C=C(C(=O)OCCCOC(=O)c2cc(N)ccc2O)OC1C(O)C(O)CO (centres unmarked) [ZA-1-ME (11)]
- EC50 (A/WSN/1933 (H1N1) virus; [10]): 16 nM
- pIC50 [3]: 6.00

Compound: CC(=O)NC1C(NC(=N)N)C=C(C(=O)O)OC1C(OC(=O)NCCCOC(=O)C=Cc1ccc(O)c(O)c1)C(O)CO (centres unmarked) [ZA-7-CA (1)]
- survival of H5N1 infected mice (in words) [6]: all survived
- potency relative to zanamivir against H5N1 [7]: about 13 fold
- pEC50 [7]: 7.30
- level of IFN-γ in serum (IFN-γ): lower
- mRNA encoding TNF-α [1]: dose-dependent decreases
- mRNA encoding IL-6 [2]: dose-dependent decreases
- level of IL-6 in serum (IL-6): lower
- protection of H1N1 virus infected mice [4]: greater protection than ZA, CA or ME
- protection of mice from influenza virus infection [4]: did not show significant protection
- survival of H1N1 infected mice (in words) [4]: all the mice died at day 12 except for those treated with conjugate 1; also recorded: all survived at day 14
- survival rate at day 14 [4]: 40%
- stability / enzymatic cleavage in plasma [8]: released a degradation product ZA-7-HP (6)
- EC50 (A/WSN/1933 (H1N1) virus; [10]): 1.4 to 10.6 nM
- pIC50 [3]: 8.13 to 8.54

Compound: CC(=O)NC1C(NC(=N)N)C=C(C(=O)O)OC1C(OC(=O)NCCCNC(=O)C=Cc1ccc(O)c(O)c1)C(O)CO (centres unmarked) [ZA-7-CA-amide (7)]
- survival rate of H5N1 infected mice (in words) ([6]; 1.2 μmol/kg/day intranasal, FIG. 17B): improved survival rate
- survival of H5N1 infected mice (in words) [6]: greater potency
- survival at day 14 [4]: 50%
- survival at day 14 / protection from virus-induced death [4]: 100%
- survival rate of H1N1 infected mice (in words) [4]: did not improve the survival rate
- EC50 (A/WSN/1933 (H1N1) virus; [9]): 5.9 nM
- EC50 (A/WSN/1933 (H1N1) virus; [10]): 5.1 nM
- pIC50 [3]: 7.22 to 7.38

Compound: CC(=O)NC1C(NC(=N)N)C=C(C(=O)O)OC1C(OC(=O)NCCCOC(=O)c1ccc(O)c(O)c1)C(O)CO (centres unmarked) [ZA-7-DHBA (5)]
- EC50 (A/WSN/1933 (H1N1) virus; [10]): 53 nM
- pIC50 [3]: 8.54

Compound: CC(=O)NC1C(NC(=N)N)C=C(C(=O)O)OC1C(OC(=O)NCCCOC(=O)c1ccc2ccccc2c1O)C(O)CO (centres unmarked) [ZA-7-HNAP (4)]
- EC50 (A/WSN/1933 (H1N1) virus; [10]): 50 to 168 nM
- pIC50 [3]: 8.44 to 9.15

Compound: CC(=O)NC1C(NC(=N)N)C=C(C(=O)O)OC1C(OC(=O)NCCCNC(=O)c1ccc2ccccc2c1O)C(O)CO (centres unmarked) [ZA-7-HNAP-amide (8)]
- EC50 (A/WSN/1933 (H1N1) virus; [10]): 6.6 nM
- pIC50 [3]: 8.51

Compound: CC(=O)NC1C(NC(=N)N)C=C(C(=O)O)OC1C(OC(=O)NCCCO)C(O)CO (centres unmarked) [ZA-7-HP (6), 5-Acetylamino-6-[2,3-dihydroxy-1-(3-hydroxypropylcarbamoyloxy)propyl]-4-guanidino-5,6-dihydro-4H-pyran-2-carboxylic acid]
- pEC50 [7]: 6.09
- pIC50 [3]: 7.70 to 7.93

Compound: CC(=O)NC1C(NC(=N)N)C=C(C(=O)O)OC1C(OC(=O)NCCCOC(=O)C=Cc1ccc2c(c1)OCO2)C(O)CO (centres unmarked) [ZA-7-MCA (2)]
- pIC50 [3]: 8.10 to 8.27

Compound: CC(=O)NC1C(NC(=N)N)C=C(C(=O)O)OC1C(OC(=O)NCCCOC(=O)c1cc(N)ccc1O)C(O)CO (centres unmarked) [ZA-7-ME (3)]
- survival of H5N1 infected mice (in words) [6]: did not provide better protection effect than ZA
- pEC50 [7]: 6.37
- level of IFN-γ in serum (IFN-γ): lower
- mRNA encoding TNF-α [1]: dose-dependent decreases
- mRNA encoding IL-6 [2]: dose-dependent decreases
- level of IL-6 in serum (IL-6): lower
- protection of H1N1 virus infected mice [4]: greater protection than ZA, CA or ME; also recorded: good activity
- pIC50 [3]: 7.25 to 8.07

Compound: CC(=O)NC1C(NC(=N)NC(=O)C(C)c2ccc(CC(C)C)cc2)C=C(C(=O)O)OC1C(O)C(O)CO (centres unmarked) [ZA-G-Ibu (47)]
- EC50 (A/WSN/1933 (H1N1) virus; [10]): 18 to 20 nM
- pIC50 [3]: 7.09 to 7.36

Compound: O=C(/C=C/c1ccc(O)c(O)c1)O[C@@H]1C[C@](O)(C(=O)O)C[C@@H](O)[C@H]1O [chlorogenic acid, reference compound]
- anti-influenza activity (in words) (A/WSN/1933 (H1N1) virus): inactive

Source: patent US10130714B2 (priority 2012, dated 2018)
